For one experiment, the target named is T1, MMP-1 (Homo sapiens, UniProt P03956).
T1 construct: The active MMP-1 was obtained by treatment of proMMP-1 with trypsin; endogenous in cells; host or cells: human rheumatoid synovial fibroblasts stimulated with macrophage-conditioned medium (secreted proenzyme purified from the medium)
T1 sequence (P03956 100-469): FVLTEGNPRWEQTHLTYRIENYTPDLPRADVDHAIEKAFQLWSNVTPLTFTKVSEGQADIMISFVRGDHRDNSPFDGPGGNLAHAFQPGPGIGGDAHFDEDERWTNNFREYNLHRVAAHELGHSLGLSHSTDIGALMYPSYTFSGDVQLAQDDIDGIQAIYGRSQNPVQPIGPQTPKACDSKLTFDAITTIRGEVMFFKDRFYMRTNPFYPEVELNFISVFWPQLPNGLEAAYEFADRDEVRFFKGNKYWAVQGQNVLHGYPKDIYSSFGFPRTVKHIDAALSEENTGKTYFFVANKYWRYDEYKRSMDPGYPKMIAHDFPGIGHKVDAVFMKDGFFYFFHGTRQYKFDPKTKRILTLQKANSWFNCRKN
As to the kind of experiment: Determination of inhibition constant (Ki) for MMP-1, fluorogenic substrate. The format is biochemical. The conditions noted are these: footnote: results are identical for MMP-1, MMP-2, MMP-3, MMP-13 and MMP-14, read-out: MMP Ki app. Here is the method:
ProMMP-1 (EC 3.4.24.7; interstitial collagenase) was purified from culture medium of human rheumatoid synovial fibroblasts stimulated with macrophage-conditioned medium according to Okada, Y. et al., J. Biol. Chem. 261, 14245-14255 (1986). The active MMP-1 was obtained by treatment of proMMP-1 with trypsin (5 μg/mL) at 37° C. for 30 minutes, followed by addition of soybean trypsin inhibitor (50 μg/mL).
Determination of Inhibition Constant (Ki) for MMP-1 The activated MMP-1 is assayed using a fluorogenic substrate, Mca-Pro-Leu-Gly-Leu-Dpa-Ala-Arg-NH2, Knight, C. G. et al., FEBS Lett. 296, 263-266 (1992), at 37° C. in 2.0 mL of assay buffer containing 50 mM Tris, pH 7.6, 0.2 M sodium chloride, 50 mM calcium chloride, and 0.02% Brij-35. The increase in fluorescence due to cleavage of Gly-Leu peptide bond by MMP-3 was monitored with Perkin-Elmer LS50B Fluorimeter (λex328 nm, λem 393 nm, excitation slit 2.5, emission slit 10). Substrate and inhibitor stock solutions were made in DMF. For determination of Ki values for MMP-1 inhibitors, a series of intermediate inhibitor solutions were prepared in DMF and 1 or 2 μL of the diluted inhibitor solution was mixed with 1 μL of 2 mM substrate solution in DMF in a quartz cuvette containing 2 mL of assay buffer. The enzyme (10 μL of 0.2 μM MMP-3 dilution in assay buffer) was added at the last to start the reaction. For routine measurement of a Ki value for a reversible, competitive inhibitor, the initial rates in the presence of at least four inhibitor concentrations (two concentrations above Ki and two concentrations below Ki) were measured using [S]=1 μM (<<Km) and [MMP-1]=0.8 nM. Under these conditions, the measured Ki app is close to true Ki.
The Ki for a competitive inhibitor is calculated using: v0/vi=(1+[I]/Ki, app) and Ki=Ki, app/(1+[S]/Km), where v0 is the initial rate in the absence of inhibitor, vi is the initial rate in the presence of inhibitor at the concentration of [I], [S] is the substrate concentration, and Km is the Michaelis constant. If slow binding is observed (i.e. if the approach to the binding equilibrium is slow), the final steady-state rate rather than the initial rate is taken as vi.

Another experiment deals with T2, MMP-2 (Homo sapiens, UniProt P08253).
T2 construct: made in house; host or cells: Pichia pastoris (vector pHIL-D2; strains KM71 and SMD1168; clone 24S)
T2 sequence (P08253 110-660): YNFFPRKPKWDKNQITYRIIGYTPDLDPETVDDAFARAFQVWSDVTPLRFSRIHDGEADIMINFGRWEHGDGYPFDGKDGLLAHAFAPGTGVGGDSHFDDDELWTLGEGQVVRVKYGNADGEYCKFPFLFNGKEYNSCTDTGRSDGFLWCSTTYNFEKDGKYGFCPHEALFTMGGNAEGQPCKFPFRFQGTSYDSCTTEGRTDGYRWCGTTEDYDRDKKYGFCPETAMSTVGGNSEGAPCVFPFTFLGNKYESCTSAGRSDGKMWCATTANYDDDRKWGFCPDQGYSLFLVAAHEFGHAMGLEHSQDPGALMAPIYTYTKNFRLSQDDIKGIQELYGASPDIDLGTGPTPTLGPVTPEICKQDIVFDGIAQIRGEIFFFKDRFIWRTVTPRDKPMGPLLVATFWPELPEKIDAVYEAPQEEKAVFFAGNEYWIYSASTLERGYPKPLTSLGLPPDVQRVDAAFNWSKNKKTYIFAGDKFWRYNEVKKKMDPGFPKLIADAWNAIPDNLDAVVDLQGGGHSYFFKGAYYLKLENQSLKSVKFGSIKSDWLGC
As to the kind of experiment: Determination of inhibition constant (Ki) for MMP-2, fluorogenic substrate. The format is biochemical. The note with it: footnote: results are identical for MMP-1, MMP-2, MMP-3, MMP-13 and MMP-14, read-out: MMP Ki app. The source says: Recombinant MMP-2 was purified from the fermentation broth of yeast Pichia pastoris that carries the integrated MMP-2 gene into its chromosome. In brief, the full-length cDNA for MMP-2 was obtained by reverse transcription of RNA from human melanoma A375M cell line by the reverse transcriptase polymerase chain reaction (RT-PCR) using sequence specific oligonucleotides. The nucleotide sequence was confirmed by Taq cycle sequencing. The cDNA was ligated into the Pichia pastoris expression vector pHIL-D2 in such a way that the expression of pro-MMP-2 is under the control of the methanol inducible alcohol oxidase promoter. The expression construct was digested with either SalI or NsiI and used to transform the Pichia pastoris strains KM71 and SMD1 168. A large-scale culture of a selected clone designated 24S was performed in a high cell density fermentor and the recombinant MMP-2 was purified from the culture supernatant by gelatin-sepharose 4B (Pharmacia). The enzyme is sufficiently pure at this stage for routine measurement of inhibition. If desired, however, the enzyme may be further purified by AcA 44 gel filtration (Spectra).
The active MMP-2 was obtained by activation of proMMP-2 at 37° C. for 1 h with 4-aminophenylmercuric acetate which was then removed by a Sephadex G-50 spin column. The enzyme is assayed using a fluorogenic substrate, Mca-Pro-Leu-Gly-Leu-Dpa-Ala-Arg-NH2, at 37° C. in 2.0 mL of assay buffer containing 50 mM Tris, pH 7.6, 0.2 M sodium chloride, 50 mM calcium chloride, 0.02% Brij-35, and 50 μM β-mercaptoethanol. The increase in fluorescence is monitored (λex 328 nm, λem 393 nm). Substrate and inhibitor stock solutions are made in DMF. The enzyme is added at the last to start the reaction. For routine measurement of a Ki value for a reversible, competitive inhibitor, the initial rates in the presence of at least four inhibitor concentrations (two inhibitor concentrations above Ki and two below Ki) are measured using [S]=1 μM (<<Km) and [MMP-2]=0.4 nM. Under these conditions, the measured Ki, app is close to true Ki.

`CNC(=O)[C@@H](Cc1cccnc1)NC(=O)[C@@H]1C(Cc2ccccc2)CCN1C(=O)[C@@H](S)C(C)C` (stereo in doubt) [Compound 1f, (2S,3S)-3-Benzyl-1-((S)-2-mercapto-3-methyl-butanoyl)-pyrrolidine-2-carboxylic acid ((R)-1-methylcarbamoyl-2-pyridin-3-yl-ethyl)-amide]: the Ki on MMP-1 and on MMP-2 was more than 10 µM in each case.
As to `CNC(=O)[C@H](Cc1ccc(O)cc1)NC(=O)[C@@H]1[C@@H](Cc2ccccc2)CCN1C(=O)[C@@H](S)C(C)C` [Compound 1a, (2S,3S)-3-Benzyl-1-((S)-2-mercapto-3-methyl-butanoyl)-pyrrolidine-2-carboxylic acid [(S)-2-(4-hydroxy-phenyl)-1-methylcarbamoyl-ethyl]-amide], the Ki on MMP-1 and at MMP-2 was more than 10 µM each time.
Consider `CNC(=O)[C@H](Cc1ccc(O)cc1)NC(=O)[C@@H]1[C@H](Cc2ccccc2)CCN1C(=O)[C@@H](S)C(C)C` [Compound 1b, (2S,3R)-3-Benzyl-1-((S)-2-mercapto-3-methyl-butanoyl)-pyrrolidine-2-carboxylic acid [(S)-2-(4-hydroxy-phenyl)-1-methylcarbamoyl-ethyl]-amide], for which the Ki at MMP-1 and at MMP-2 was more than 10 µM each time.
In the case of `CNC(=O)[C@H](Cc1cccnc1)NC(=O)[C@@H]1[C@@H](Cc2ccccc2)CCN1C(=O)[C@@H](S)C(C)C` [Compound 1c, (2S,3S)-3-Benzyl-1-((S)-2-mercapto-3-methyl-butanoyl)-pyrrolidine-2-carboxylic acid ((S)-1-methylcarbamoyl-2-pyridin-3-yl-ethyl)-amide], the Ki on MMP-1 and at MMP-2 was more than 10 µM throughout.
With `CNC(=O)[C@H](Cc1cccnc1)NC(=O)[C@@H]1[C@H](Cc2ccccc2)CCN1C(=O)[C@@H](S)C(C)C` [Compound 1d, (2S,3R)-3-Benzyl-1-((S)-2-mercapto-3-methyl-butanoyl)-pyrrolidine-2-carboxylic acid ((S)-1-methylcarbamoyl-2-pyridin-3-yl-ethyl)-amide], the Ki at MMP-1 and on MMP-2 was more than 10 µM each time.
As to `CNC(=O)[C@@H](Cc1cccnc1)NC(=O)[C@@H]1[C@@H](Cc2ccccc2)CCN1C(=O)[C@@H](S)C(C)C` [Compound 1e, (2S,3S)-3-Benzyl-1-((S)-2-mercapto-3-methyl-butanoyl)-pyrrolidine-2-carboxylic acid ((R)-1-methylcarbamoyl-2-pyridin-3-yl-ethyl)-amide], the Ki at MMP-1 and at MMP-2 was more than 10 µM each time.
`CNC(=O)[C@@H](NC(=O)[C@@H]1[C@@H](Cc2ccccc2)CCN1C(=O)[C@@H](S)C(C)C)C(C)(C)C` [Compound 1g, (2S,3S)-3-Benzyl-1-((S)-2-mercapto-3-methyl-butanoyl)-pyrrolidine-2-carboxylic acid ((S)-2,2-dimethyl-1-methylcarbamoyl-propyl)-amide]: the Ki on MMP-1 and on MMP-2 was more than 10 µM throughout.
Regarding `CNC(=O)[C@@H](NC(=O)[C@@H]1[C@H](Cc2ccccc2)CCN1C(=O)[C@@H](S)C(C)C)C(C)(C)C` [Compound 1h, (2S,3R)-3-Benzyl-1-((S)-2-mercapto-3-methyl-butanoyl)-pyrrolidine-2-carboxylic acid ((S)-2,2-dimethyl-1-methylcarbamoyl-propyl)-amide], the Ki on MMP-1 and at MMP-2 was more than 10 µM throughout.

Source of the values: US6486193B2, “3-substituted pyrrolidines useful as inhibitors of matrix metalloproteinases” (Aventis Pharmaceuticals Inc., priority 1998, dated 2002).
